Read-outs that look alike come from different tables or passages of the source.
Legend:
ozone-induced AHR = assay: Ozone-induced AHR mouse model (asthma precipitated by air pollution); type: in vivo
Text: (§1) We have carried out experiments with GRP blockade given as an intraperitoneal (IP) injection to prevent and/or treat AHR in several different mouse models of airways hyperreactivity (AHR) and/or inflammation: ozone-induced AHR as a model for asthma precipitated by air pollution, ovalbumin (OVA)-induced AHR as a model of allergic airways inflammation, and endotoxin (lipopolysaccharide, LPS)-induced AHR as a first step towards assessing infectious causes of asthma. These experiments used the small molecule GRP inhibitor, 77427, or a monoclonal anti-GRP blocking antibody, 2A 11. […] In the near future, we hope to test GRP blockade in additional mouse models of asthma, including: Mycoplasma infection, respiratory syncytial virus (RSV) infection, Aspergillus infection, and house dust mite exposure.
(§2) In contrast, mice were treated with dexamethasone (Dex), the standard of care for asthma, before ozone exposure.

[1] = test system: chronic radiation pneumonitis; assay: Chronic radiation pneumonitis in mice after 15 Gy thoracic radiation; type: in vivo; details: 500 nM 77427 twice a week IP following 15 Gy thoracic radiation
Method: We can also block chronic radiation pneumonitis in mice given 500 nM 77427 twice a week IP following 15 Gy thoracic radiation.

cytokines = assay: Cytokine levels in ozone and ovalbumin in vivo mouse models of asthma
Text: We have carried out experiments with GRP blockade given as an intraperitoneal (IP) injection to prevent and/or treat AHR in several different mouse models of airways hyperreactivity (AHR) and/or inflammation: ozone-induced AHR as a model for asthma precipitated by air pollution, ovalbumin (OVA)-induced AHR as a model of allergic airways inflammation, and endotoxin (lipopolysaccharide, LPS)-induced AHR as a first step towards assessing infectious causes of asthma. […] The invention would extend to any compound able to block GRP signaling by either binding to GRP itself or to the GRP receptor, which are part of the same signal transduction cascade. In the near future, we hope to test GRP blockade in additional mouse models of asthma, including: Mycoplasma infection, respiratory syncytial virus (RSV) infection, Aspergillus infection, and house dust mite exposure.

[2] = test system: ovalbumin (OVA)-induced AHR; assay: Ovalbumin (OVA)-induced AHR mouse model (allergic airways inflammation); type: in vivo
Text: as §1, §2

GRP [3] = molecular target: T1, GRP (Homo sapiens, UniProt P07492); details: cited from earlier work
T1 sequence (P07492 24-50 limits assumed): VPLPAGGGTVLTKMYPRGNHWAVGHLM

GRP [4] = molecular target: T1, GRP; details: prevention of antibody-ligand interaction; blocking GRP-induced IP3 production and Ca2+ flux; cited from earlier work
[5] = F. Cuttitta, unpublished data; cited from earlier work
GRP-induced angiogenesis = details: in vitro and in vivo; cited from earlier work
[6] = test system: endothelial cell tube formation; details: Matrigel support matrix; cited from earlier work
neovascularization = details: on a molar basis (≈500 nM), compared with MoAb-2A11; cited from earlier work
GRP receptor = details: lung slices from one non-human primate, 2 slices MCh + antagonist; morphological assessment; cited from earlier work

With `C[C@@H]1C[C@H]2[C@@H]3CCC4=CC(=O)C=C[C@]4(C)[C@@]3(F)[C@@H](O)C[C@]2(C)[C@@]1(O)C(=O)CO` [Dex, dexamethasone] the “number of cytokines with significantly increased levels” value (ozone-induced AHR; treatment before ozone, IL-6, IL-12 (p40), TNFα) was 3.
In the case of `Nc1nc(Cl)cc(NCCO)n1` [compound 77427], the chronic radiation pneumonitis [1] is reported as “block”, the “Interleukin-2 (IL-2)” value (cytokines; FIG. 2A) is reported as “suppression” and the TNF-alpha (cytokines; FIG. 2C) is reported as “suppression”. For the same molecule, the GM-CSF (cytokines; FIG. 2D) was “suppression”, the IL-4 (cytokines; FIG. 2E) was “suppression” and the IL-5 (cytokines; FIG. 2F) was “suppression”. The IL-13 (cytokines; FIG. 2G) was “suppression”, the IL-6 (cytokines; FIG. 2H) was “suppression” and the IL-17 (cytokines; FIG. 2I) was “suppression”. The MCP-1 (cytokines; FIG. 2J) was “suppression”, the KC (cytokines; FIG. 2K) was “suppression” and the VEGF (cytokines; FIG. 2L) was “suppression”. The “cytokines tested whose increased levels are significantly suppressed (P<0.0001) or abrogated” value (cytokines; ozone and ovalbumin models, cytokines represent at least 5 inflammatory cell types) was 21 of 21, the “airway hyperreactivity (AHR)” value (ozone-induced AHR; ozone model) was “abrogates” and the airways inflammation (ozone-induced AHR; ozone model) was “abrogates”. The “airway hyperreactivity (AHR)” value [2] was “abrogates”, the airways inflammation [2] was “abrogates” and the “blocks % of GRP” value (GRP [3]; 5 nM 77427) was 50%. The “blocks % of GRP” value (GRP [3]; 50 nM 77427) was 70%, the “blocks % of GRP” value (GRP [3]; 500 nM 77427) was 95% and the “mimetic to MoAb-2A11 / antagonist to GRP in screen” value (GRP [4]) was “ideal mimetic to MoAb-2A11”. For the same molecule, the half-life [5] was roughly 240 h, the “inhibition of GRP-induced angiogenesis” value (GRP-induced angiogenesis) was “potent inhibitor” and the “blocking of GRP mediated endothelial cell tube formation” value [6] was “effective blocker”. For the same molecule, the “suppressive response in stopping neovascularization” value (neovascularization) was “equivalent suppressive response as MoAb-2A11”.
In the case of [Leu^13-(ψ-CH2NH)-Leu^14]-bombesin, the “MCh-induced reduction of internal airway diameter (bronchoconstriction) of bronchi” value (GRP receptor) is listed as “slightly reduced”.
